Test results from the METLIN SMRT retention time set (Domingo-Almenara et al. 2019).

Test: gradient 5% acetonitrile 3 min, to 50% in 2 min, to 85% in 15 min, held 3 min, 100 µL/min
Settings: column: Zorbax Extend-C18 2.1 x 50 mm; eluents: water / acetonitrile, 0.1% formic acid
In short: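 Each retention time is based on an adduct peak selected computationally and verified by manual inspection. Measurements used HPLC–quadrupole time-of-flight mass spectrometry in positive and negative ionization mode on mixtures of ~100 pure standards. Chromatography ran on a Zorbax Extend-C18 column (2.1 × 50 mm, 1.8 μm) at 100 μL/min with water and acetonitrile, each containing 0.1% formic acid, and dead and dwell volumes of 40 μL and 900 μL.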

| RP-LC retention time | SMILES |
| --- | --- |
| 689 s | CCC1CN2C=Nc3oc(C)c(C(=O)Nc4ccc(C)c(F)c4)c3C2=N1 (centres undefined) |
| 901 s | Fc1ccc(-c2noc(-c3ccc(NC4CC4)nc3)n2)cc1 |
| 754 s | CNC(=O)Nc1ccc(C2(C(=O)N3CCN(c4ccccc4)CC3)CCC2)cc1 |
| 790 s | COc1cccc(CNc2c(-c3nc(C(C)C)no3)cnc3nc(C)ccc23)c1 |
| 1020 s | COCCn1cc2c3c(cccc31)CN(C(=O)Nc1ccc(C)c(C)c1)CC2 |
| 566 s | CCn1ccc(C(=O)N2CC(n3ccnc3C(C)C)C2)n1 |
| 653 s | CC(C)S(=O)(=O)c1ccc(C(=O)N2CC(=O)Nc3ccccc32)cc1 |
| 806 s | CN1C(=O)c2cccnc2Sc2cc(C(=O)NCc3ccccc3Cl)ccc21 |
| 900 s | Cc1cc(Cl)ccc1NC(=O)c1cc2c(=O)n(CC(C)C)ccc2n1C |
| 872 s | Cc1nn(CC(=O)N2CCC(C)CC2)c(=O)c2nc(-c3ccccc3)sc12 |
| 579 s | CN(C)C(=O)CN1CCN(c2cc(C(=O)O)c3cc(NC(=O)c4ccc(F)cc4)ccc3n2)CC1 |
| 558 s | O=C(CCN1C(=O)C2CC=CCC2C1=O)N1CCN(c2ccccn2)CC1 (centres undefined) |
| 698 s | COC(=O)c1ccc(NC(=O)Cc2csc(Nc3ccc(S(C)(=O)=O)cc3)n2)cc1 |
| 910 s | Cc1[nH]c(C(=O)N2CCC(CC(=O)NCCC3=CCCCC3)CC2)c(C)c1C |
| 703 s | COc1cc(Nc2cc(C(=O)N3CCC(C)CC3)nc3ccc(C)cc23)cc(OC)c1OC |
| 751 s | Cc1ccc(NS(=O)(=O)c2ccc3c4c(cccc24)C(=O)N3)c(C)c1 |
| 564 s | Cc1ccc2nc(C(=O)NCCN(C)C3CCCCC3)cn2c1 |
| 833 s | Cc1ccccc1Nc1c(-c2ccc(N(C)C)cc2)nc2cnccn12 |
| 1120 s | COc1ccc2[nH]c3c(c2c1)CCN1C(=O)N(c2ccc(Cl)c(Cl)c2)C(=O)C31C (centres undefined) |
| 944 s | O=C1CC(c2noc(-c3cc(F)cc(F)c3)n2)CN1c1ccc(F)cc1 (centres undefined) |
| 754 s | COc1ccc(S(=O)(=O)N2CCN(c3cc(C)nc(N4CCCC4)n3)CC2)cc1Cl |
| 905 s | COc1ccc(S(=O)(=O)Cc2nc(-c3ccccc3Br)no2)cc1 |

| RP-LC retention time | SMILES |
| --- | --- |
| 910 s | COc1cc(OC)c(NS(=O)(=O)c2ccc3c(c2)-c2oncc2CO3)cc1Cl |
| 795 s | Cc1cc(C)n(Cc2nc(-c3ccc(NC(=O)C4CCCO4)cc3)oc2C)n1 (centres undefined) |
| 729 s | CCN(CC)CCCNC(=O)c1cn(C)nc1S(=O)(=O)N1CCN(c2ccc(Cl)cc2)CC1 |
| 1120 s | Cc1cc(C(=O)Nc2nc(-c3ccc(C)c(C)c3)c(C)s2)no1 |
| 892 s | Cc1cccc(NS(=O)(=O)c2cn(C(C)C)c3ncccc23)c1 |
| 862 s | Cc1ccc(N2CCC(NC(=O)c3ccccc3)C2=O)cc1C (centres undefined) |
| 569 s | CCN1CCN(CCCNC(=O)c2cc3sccc3n2C)CC1 |
| 943 s | C=CCN1C(=O)COc2ccc(-c3csc(NC(=O)c4ccc(OC)c(OC)c4)n3)cc21 |
| 752 s | COc1cccc(C(=O)N2CCC3(CC2)NC(=O)c2ccc(F)cc2N3C)c1 |
| 1220 s | O=C(COc1ccc(F)cc1)Nc1ccc(-c2nc(-c3ccc(F)cc3)no2)cc1 |
| 649 s | COc1cc(Nc2c(C(=O)N3CCCCC3C)cnc3nc(C)ccc23)cc(OC)c1 (centres undefined) |
| 717 s | Cc1cc(C)n(-c2cc(N3CCCC(C(=O)Nc4nnc(C)s4)C3)ncn2)n1 (centres undefined) |
| 834 s | CCOC(=O)C1=C(O)C(=O)N(Cc2ccccc2)C1 |
| 588 s | CCCNC(=O)Nc1ccc(NC(=O)N2CCC(C(=O)NCC)CC2)cc1 |
| 1190 s | CCOc1cccc(Cn2c(=O)c3sccc3n(Cc3nc(-c4ccccc4C)no3)c2=O)c1 |
| 955 s | Cc1ccc(S(=O)(=O)N2CCc3c(c(-c4nnc(-c5ccccc5F)o4)nn3C)C2)cc1 |
| 1240 s | Cc1ccc(-c2cc(C(=O)O)c3ccc(Br)cc3n2)cc1C |
| 911 s | COc1ccccc1CNC(=O)c1nnc(-c2ccc(S(=O)(=O)N3CCCCC3)cc2)o1 |
| 659 s | Cc1cncc(CN2CCC(=C3c4ccc(Cl)cc4CCc4cccnc43)CC2)c1 |
| 572 s | O=C1CCN(C(=O)C2CCN(C(=O)CN3CCCC3=O)CC2)CCCCCCN1 |
| 799 s | Cc1oc(-c2[nH]ncc2C(=O)N2CCCCC2)cc1S(=O)(=O)Nc1ccc(Cl)cc1 |
| 736 s | C=CCNC(=O)NC1CCN(C2=NS(=O)(=O)C(c3ccc(C)cc3)=C2C)CC1 |

| RP-LC retention time | SMILES |
| --- | --- |
| 908 s | Cc1cc2nn(CC(=O)Nc3ccc4c(c3)OCCO4)c(=O)n2c(Nc2ccccc2C)n1 |
| 541 s | O=C(CCC1CCN(c2cc(NC3CC3)ncn2)CC1)NCc1ccccn1 |
| 988 s | CN1C(=O)COc2ccc(-c3csc(NC(=O)C4CCCCC4)n3)cc21 |
| 608 s | Cc1nc(CCNC(=O)C2CCC2)no1 |
| 645 s | CS(=O)(=O)Nc1nc2ccccc2[nH]1 |
| 1140 s | CC(C)Cc1ccc(S(=O)(=O)N2CCC(C(=O)NCc3csc(-c4ccccc4)n3)CC2)cc1 |
| 1060 s | Cc1cccc(Sc2nccnc2N2CCC(C(=O)NCc3ccccc3)CC2)c1 |
| 721 s | CCC(C)NC(=O)c1ccc(CN2CCN(Cc3ccccc3)C(=O)C2=O)cc1 (centres undefined) |
| 1310 s | CCCCn1c(=O)c2ccccc2n(Cc2nc(-c3ccc(CC)cc3)no2)c1=O |
| 1160 s | CCc1ccc(-c2noc(Cn3c(=O)n(-c4ccc(Cl)cc4)c(=O)c4sccc43)n2)cc1 |
| 663 s | O=C(NC1CCCCC1)N1CCCC(Cn2cnc3cccnc32)C1 (centres undefined) |
| 911 s | COc1ccc(-c2nc(C3CC(=O)N(c4ccc(OC)c(OC)c4)C3)no2)c(C)c1 (centres undefined) |
| 921 s | CC1CCCCN1S(=O)(=O)c1ccc2c(c1)CCC(=O)N2CC(=O)NC1CCCCC1 (centres undefined) |
| 889 s | O=C(Cc1csc2ccccc12)N1CCN(C(=O)Nc2ccccc2Cl)CC1 |
| 878 s | CC(C)c1cccc(N2C=C(C(=O)N3CCOCC3)S(=O)(=O)c3ccccc32)c1 |
| 890 s | CCCn1cc(S(=O)(=O)Nc2cc(F)cc(F)c2)c2cccnc21 |
| 750 s | COc1ccc(S(=O)(=O)NC2CCN(C(=O)C3CCC3)CC2)cc1 |
| 867 s | COCCCNC(=O)c1ccc(-c2nc3cccnc3n(C3CCCC3)c2=O)cc1 |
| 963 s | Cc1cc(NS(=O)(=O)c2ccc(-c3nnc(C4CCC4)o3)o2)ccc1F |
| 837 s | O=S(=O)(c1ccccc1)c1nnn2c1nc(NCc1ccc(F)cc1)c1sccc12 |
| 824 s | COc1ccc(-n2ccc(=O)c(-c3nc(-c4cccc(OC)c4OC)no3)n2)cc1 |
| 846 s | CC(C)NC(=O)c1nc2ccccn2c1-c1ccc(Cl)cc1 |

| RP-LC retention time | SMILES |
| --- | --- |
| 708 s | O=C(c1cn(-c2cc(-c3nc(C4CC4)no3)ccn2)cn1)N1CCOCC1 |
| 944 s | COC(=O)c1cc2c(=O)n(-c3cc(Cl)ccc3Cl)ccc2nc1C |
| 872 s | COc1ccc2nc(C(=O)NCc3ccc(F)cc3Cl)cn2n1 |
| 666 s | Cc1nc(C)c2c(n1)N(Cc1cccc(F)c1)C(=O)CC2 |
| 1130 s | COC(=O)C1(C)CCCC2(C)c3cc(OC)ccc3C(=O)C(Br)C12 (centres undefined) |
| 944 s | COc1cc(OC)c(NC(=O)c2cnn(-c3ccccc3)c2)cc1Cl |
| 699 s | CCN(CC)C(=O)c1ccc(-c2nc3cc(NS(=O)(=O)c4ccc(F)cc4)ccc3n2C)cc1 |
| 607 s | CCS(=O)(=O)Nc1ccc2nc(N3CCN(c4cc(C)ccc4C)CC3)cc(C(=O)O)c2c1 |
| 795 s | O=C(c1ccc(OCC2CCCN2C(=O)c2ccc(Cl)cc2)cc1)N1CCOCC1 (centres undefined) |
| 1100 s | CCCN1CCCCc2cc(C(=O)NC(C)CC)sc21 (centres undefined) |
| 1050 s | C=CCn1c(=O)c2ccccc2n(Cc2nc(-c3ccc(F)cc3)no2)c1=O |
| 627 s | O=C(NCCN1CCOCC1)C1CCN(c2nccnc2Sc2ccccc2)CC1 |
| 708 s | CCC/C(C)=C/c1ccc(CC)cn1 |
| 695 s | Cc1ccc(NS(=O)(=O)c2cc(-c3[nH]ncc3C(=O)N3CCOCC3)oc2C)cc1 |
| 1160 s | CNC(=O)c1c(NC(=O)c2cccc(Cl)c2)sc2c1CCC2 |
| 584 s | Nc1nc(N)c2ncn(-c3ccccc3)c2n1 |
| 684 s | Cc1cccc(C)c1NC(=O)Cn1nc2n(c1=O)CCCCC2 |
| 958 s | O=C(Nc1cccc(C(F)(F)F)c1)C1CCCN(c2ncnc3c2nc2n3CCCCC2)C1 (centres undefined) |
| 878 s | CN1CCN(CCCNC(=O)c2ccccc2NC(=O)C2=CSCCO2)CC1 |

| SMILES | RP-LC retention time |
| --- | --- |
| NC1N=C(c2ccccc2)c2ccccc2NC1=O (centres undefined) | 568 s |
| O=C(N1[C@H]2CC[C@@H]1c1cnc(-c3ccc(F)cc3)nc1C2)C1(c2ccccc2)CC1 | 1070 s |
| C[C@]12CCC(=O)C[C@@H]1CC[C@@H]1[C@@H]2CC[C@@]2(C)[C@H]1CC[C@]2(C)O | 1050 s |
| COC1C(=O)N(c2cccc(F)c2)C12CCN(C(=O)C1(c3ccccc3)CC1)CC2 (centres undefined) | 994 s |
